Data published in US8198434B2, “Process for preparing cefsulodin sodium” (IDEXX Laboratories, Inc., priority 2008, dated 2012).

What was measured:
Assay type in all cases: physicochemical
[1] = Stability study of cefsulodin sodium stored at 55° C., purity by HPLC (Example 3); details: for Purity Day 0: Day 0, HPLC peak area; for Purity Day 7: Day 7, HPLC peak area; for Purity Day 14: Day 14, HPLC peak area; for Purity Day 21: Day 21, HPLC peak area; for Purity Day 28: Day 28, HPLC peak area; for Purity Day 42: Day 42, HPLC peak area; for Purity Day 49: Day 49, HPLC peak area; for Purity Day 56: Day 56, HPLC peak area; for Purity Day 63: Day 63, HPLC peak area; for Purity Day 70: Day 70, HPLC peak area; for Purity Day 35: Day 35, HPLC peak area
Method: (§1) Three lots of cefsulodin sodium, prepared according to the process described in Example 2, were stored at 55° C. and 40° C. and the purity of the sample determined as a function of time using HPLC. […] The stability of a lyophilized sample of cefsulodin sodium containing about 5-6% water at 55° C. was also determined. The lyophilized sample was prepared by suspending cefsulodin in water, adding sodium hydroxide until the cefsulodin dissolved, and then removing the water by lyophilization. The area of the HPLC peak corresponding to cefsulodin was used to determine purity. The following assay was used to determine purity:
(§2) 1. 25 mM Sodium Acetate pH 4.5 • a. Measure out 2 L of HPLC grade water. • b. Add 4.1 g of sodium acetate. • c. Mix until dissolved. • d. Adjust the pH to 4.5 with HPLC grade acetic acid. • e. Filter the solution through a nylon filter.
(§3) 2. 3% acetonitrile-97% 25 mM sodium acetate pH 4.5 (Mobile Phase A) • a. Measure out 1940 mL of 25 mM sodium acetate into a 2 L flask. • b. Add 60 mL of HPLC grade acetonitrile. • c. Mix well.
(§4) 3. HPLC Grade acetonitrile (Mobile Phase B) • a. Transfer acetonitrile into a 1 L flask. Sample Preparation:
(§5) 1. Weigh out about 10 mg of cefsulodin into a 15 mL conical tube.
(§6) 2. Add […] of mobile phase A and mix to dissolve (1 mg/mL cefsulodin Stock solution).
(§7) 3. Transfer 1 mL of cefsulodin stock solution into another 15 mL conical tube.
(§8) 4. Add 7 mL of mobile phase A to make a 0.125 mg/mL solution of cefsulodin.
(§9) 5. Filter this solution through a nylon syringe filter into an HPLC vial.
(§10) 6. Analyze the sample by HPLC using the conditions described below.
(§11) Solvents: Pump A-Mobile Phase A • Pump B-Mobile Phase B
(§12) Detection wavelength: 254 nm
(§13) Initial Conditions: 100% Pump A-0% Pump B
(§14) The above gradient can be summarized as follows: maintain at 0% B for 0.3 min; at 0.3 min run a gradient to 70% B for 2.5 min; maintain at 70% B for 1 min; at 3.5 min go back to 0% B for 0.5 min; run at 0% B until the 8.00 min mark.

[2] = Stability study of cefsulodin sodium stored at 40° C., purity by HPLC (Example 3); details: for Purity Day 0: Day 0, HPLC peak area; for Purity Day 7: Day 7, HPLC peak area; for Purity Day 14: Day 14, HPLC peak area; for Purity Day 21: Day 21, HPLC peak area; for Purity Day 28: Day 28, HPLC peak area; for Purity Day 42: Day 42, HPLC peak area; for Purity Day 49: Day 49, HPLC peak area; for Purity Day 56: Day 56, HPLC peak area; for Purity Day 63: Day 63, HPLC peak area; for Purity Day 70: Day 70, HPLC peak area; for Purity Day 35: Day 35, HPLC peak area
Method: as §1, §2, §3, §4, §5, §6, §7, §8, §9, §10, §11, §12, §13, §14

[3] = Storage at about room temperature, purity by HPLC
Solubility in water = test: Solubility in water
[4] = Stability of needle-shaped and spherical-shaped cefsulodin sodium crystals at 55° C. (Example 5); details: for Purity Day 1 / Purity Day 7 / Purity Day 14 / Purity Day 21: crystal form stored at 55° C.
Method: Needle-shaped cefsulodin sodium crystals were obtain according to a process similar to the process described in Example 2.
Spherical-shaped cefsulodin sodium crystals were obtain according to the process described in Example 3.
The stability of each crystal form was measured at 55° C.

Row | Purity Day 0 [1] [%] | Purity Day 7 [1] [%] | Purity Day 14 [1] [%] | Purity Day 21 [1] [%] | Purity Day 28 [1] [%] | Purity Day 42 [1] [%] | Purity Day 49 [1] [%] | Purity Day 56 [1] [%] | Purity Day 63 [1] [%] | Purity Day 70 [1] [%] | Purity Day 0 [2] [%] | Purity Day 7 [2] [%] | Purity Day 14 [2] [%] | Purity Day 21 [2] [%] | Purity Day 28 [2] [%] | Purity Day 42 [2] [%] | Purity Day 49 [2] [%] | Purity Day 56 [2] [%] | Purity Day 63 [2] [%] | Purity Day 70 [2] [%] | Compound | further results
1 | 99.3 | 96.9 | 96.1 | 94.8 | 93.9 | 93.4 | 92.6 | 92.7 | 91.3 | 91.3 | 99.3 | 98.4 | 98.5 | 98.1 | 97.9 | 96.2 | 97.2 | 97.3 | 97.0 | 97.0 | NC(=O)c1cc[n+](CC2=C(C(=O)[O-])N3C(=O)[C@@H](NC(=O)[C@@H](c4ccccc4)S(=O)(=O)[O-])[C@H]3SC2)cc1.[Na+] [Lot 3, cefsulodin sodium] | –
2 | – | – | – | – | – | – | – | – | – | – | – | – | – | – | – | – | – | – | – | – | NC(=O)c1cc[n+](CC2=C(C(=O)O)N3C(=O)[C@@H](NC(=O)[C@@H](c4ccccc4)S(=O)(=O)[O-])[C@H]3SC2)cc1 [cefsulodin sodium] | purity after storage for 29 days ([3]; about room temperature, 29 days): 80.4%; purity after storage for 56 days ([3]; about room temperature, 56 days): 76.7%; purity determined by HPLC before storage ([3]; initial, before storage at about room temperature): about 95%
3 | – | – | – | – | – | – | – | – | – | – | – | – | – | – | – | – | – | – | – | – | NC(=O)c1cc[n+](CC2=C(C(=O)[O-])N3C(=O)[C@@H](NC(=O)[C@@H](c4ccccc4)S(=O)(=O)[O-])[C@H]3SC2)cc1.[Na+] [monosodium cefsulodin, monosodium salt of cefsulodin] | solubility in water (Solubility in water): more soluble in water that cefsulodin
4 | – | – | – | – | – | – | – | – | – | – | – | – | – | – | – | – | – | – | – | – | NC(=O)c1cc[n+](CC2=C(C(=O)O)N3C(=O)[C@@H](NC(=O)[C@@H](c4ccccc4)S(=O)(=O)[O-])[C@H]3SC2)cc1 [cefsulodin] | solubility in water (Solubility in water): insoluble in water
5 | – | – | – | – | – | – | – | – | – | – | – | – | – | – | – | – | – | – | – | – | NC(=O)c1cc[n+](CC2=C(C(=O)[O-])N3C(=O)[C@@H](NC(=O)[C@@H](c4ccccc4)S(=O)(=O)[O-])[C@H]3SC2)cc1.[Na+] [Spherical-shaped, cefsulodin sodium] | Purity Day 1 [4]: 98.5; Purity Day 7 [4]: 86.3; Purity Day 14 [4]: 83.7; Purity Day 21 [4]: 83.1
6 | 98.8 | – | – | – | 80.4 | – | – | – | – | – | – | – | – | – | – | – | – | – | – | – | NC(=O)c1cc[n+](CC2=C(C(=O)O)N3C(=O)[C@@H](NC(=O)[C@@H](c4ccccc4)S(=O)(=O)[O-])[C@H]3SC2)cc1 [Lyophilized, cefsulodin sodium] | –
7 | – | – | – | – | – | – | – | – | – | – | – | – | – | – | – | – | – | – | – | – | NC(=O)c1cc[n+](CC2=C(C(=O)[O-])N3C(=O)[C@@H](NC(=O)[C@@H](c4ccccc4)S(=O)(=O)[O-])[C@H]3SC2)cc1.[Na+] [Needle-shaped, cefsulodin sodium] | stability of crystal forms (comparison) ([4]; 55° C.): more stable than the spherical-shaped crystals; Purity Day 1 [4]: 99.2; Purity Day 7 [4]: 98.1; Purity Day 14 [4]: 96.8; Purity Day 21 [4]: 95.7
8 | 99.2 | 97.2 | 96.0 | 94.9 | 94.3 | 91.8 | 90.9 | 90.5 | 89.8 | 89.1 | 99.2 | 98.2 | 98.2 | 97.5 | 97.2 | 96.3 | 96.4 | 96.0 | 96.0 | 95.3 | NC(=O)c1cc[n+](CC2=C(C(=O)[O-])N3C(=O)[C@@H](NC(=O)[C@@H](c4ccccc4)S(=O)(=O)[O-])[C@H]3SC2)cc1.[Na+] [Lot 1, cefsulodin sodium] | Purity Day 35 [1]: 93.4%; Purity Day 35 [2]: 96.4%
9 | 99.2 | 97.1 | 96.1 | 94.7 | 94.4 | 91.8 | 91.0 | 90.1 | 89.8 | 89.2 | 99.2 | 98.5 | 98.3 | 97.7 | 97.1 | 96.5 | 96.4 | 96.4 | 96.1 | 95.6 | NC(=O)c1cc[n+](CC2=C(C(=O)[O-])N3C(=O)[C@@H](NC(=O)[C@@H](c4ccccc4)S(=O)(=O)[O-])[C@H]3SC2)cc1.[Na+] [Lot 2, cefsulodin sodium] | Purity Day 35 [1]: 92.9%; Purity Day 35 [2]: 96.8%
